Source: PubChem BioAssay (NCI)
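Grown in 96-well plates, cells were treated for 48 hours with each compound at five concentrations. Insufficient inhibition: endpoint recorded as highest concentration tested. TGI is the concentration that stops growth completely.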

How the values were obtained:
Assay in all cases: NCI anticancer screen, dose series, 48 h
CAKI-1 renal = system: CAKI-1 renal
HCT-15 colon = system: HCT-15 colon
PC-3 prostate = system: PC-3 prostate
MDA-MB-231 breast = system: MDA-MB-231 breast
NCI-H460 lung = system: NCI-H460 lung
DU-145 prostate = system: DU-145 prostate
SN12C renal = system: SN12C renal
SK-MEL-5 melanoma = system: SK-MEL-5 melanoma
UACC-62 melanoma = system: UACC-62 melanoma
ACHN renal = system: ACHN renal
SNB-75 CNS = system: SNB-75 CNS
NCI-H226 lung = system: NCI-H226 lung
HS 578T breast = system: HS 578T breast
SK-MEL-28 melanoma = system: SK-MEL-28 melanoma
SK-OV-3 ovarian = system: SK-OV-3 ovarian
KM12 colon = system: KM12 colon
MCF7 breast = system: MCF7 breast
A498 renal = system: A498 renal
MDA-MB-435 = system: MDA-MB-435
MOLT-4 leukemia = system: MOLT-4 leukemia
MALME-3M melanoma = system: MALME-3M melanoma
SF-295 CNS = system: SF-295 CNS
HL-60(TB) leukemia = system: HL-60(TB) leukemia
SK-MEL-2 melanoma = system: SK-MEL-2 melanoma
NCI/ADR-RES ovarian = system: NCI/ADR-RES ovarian
MDA-N = system: MDA-N
HT29 colon = system: HT29 colon
RXF 393 renal = system: RXF 393 renal
LOX IMVI melanoma = system: LOX IMVI melanoma
TK-10 renal = system: TK-10 renal
CCRF-CEM leukemia = system: CCRF-CEM leukemia
OVCAR-3 ovarian = system: OVCAR-3 ovarian
COLO 205 colon = system: COLO 205 colon
SF-268 CNS = system: SF-268 CNS
786-0 renal = system: 786-0 renal
EKVX NSCLC = system: EKVX NSCLC
RPMI-8226 leukemia = system: RPMI-8226 leukemia
UO-31 renal = system: UO-31 renal
IGROV1 ovarian = system: IGROV1 ovarian
UACC-257 melanoma = system: UACC-257 melanoma
HOP-62 NSCLC = system: HOP-62 NSCLC
BT-549 breast = system: BT-549 breast
M14 melanoma = system: M14 melanoma
HCT-116 colon = system: HCT-116 colon
U251 CNS = system: U251 CNS
HOP-92 NSCLC = system: HOP-92 NSCLC
NCI-H23 lung = system: NCI-H23 lung
SW-620 colon = system: SW-620 colon
T-47D breast = system: T-47D breast
OVCAR-4 ovarian = system: OVCAR-4 ovarian
SF-539 CNS = system: SF-539 CNS
OVCAR-5 ovarian = system: OVCAR-5 ovarian
SNB-19 CNS = system: SNB-19 CNS
OVCAR-8 ovarian = system: OVCAR-8 ovarian
NCI-H522 lung = system: NCI-H522 lung
K-562 leukemia = system: K-562 leukemia
A549 NSCLC = system: A549 NSCLC
HCC-2998 colon = system: HCC-2998 colon

SMILES: Cc1ccc(I)cc1N=C=S
- TGI (CAKI-1 renal): 71.2 µM
- TGI (HCT-15 colon): 34.8 µM
- TGI (PC-3 prostate): 51.4 µM
- TGI (MDA-MB-231 breast): 71.1 µM
- TGI (NCI-H460 lung): 52.1 µM
- TGI (DU-145 prostate): 96.1 µM
- TGI (SN12C renal): 49.3 µM
- TGI (SK-MEL-5 melanoma): 30.1 µM
- TGI (UACC-62 melanoma): 31.6 µM
- TGI (ACHN renal): 54.8 µM
- TGI (SNB-75 CNS): 52.7 µM
- TGI (NCI-H226 lung): 39.9 µM
- TGI (HS 578T breast): 91.8 µM
- TGI (SK-MEL-28 melanoma): 39.2 µM
- TGI (SK-OV-3 ovarian): > 100 µM
- TGI (KM12 colon): 36.9 µM
- TGI (MCF7 breast): 54.4 µM
- TGI (A498 renal): 48.8 µM
- TGI (MDA-MB-435): 73.7 µM
- TGI (MOLT-4 leukemia): 43.8 µM
- TGI (MALME-3M melanoma): 61.5 µM
- TGI (SF-295 CNS): 62.8 µM
- TGI (HL-60(TB) leukemia): 44.3 µM
- TGI (SK-MEL-2 melanoma): 38.6 µM
- TGI (NCI/ADR-RES ovarian): 63.3 µM
- TGI (MDA-N): 86.5 µM
- TGI (HT29 colon): 53 µM
- TGI (RXF 393 renal): 40.6 µM
- TGI (LOX IMVI melanoma): 53.8 µM
- TGI (TK-10 renal): 88.7 µM
- TGI (CCRF-CEM leukemia): 57.2 µM
- TGI (OVCAR-3 ovarian): > 100 µM
- TGI (COLO 205 colon): 34 µM
- TGI (SF-268 CNS): 75.8 µM
- TGI (786-0 renal): 60 µM
- TGI (EKVX NSCLC): 63.4 µM
- TGI (RPMI-8226 leukemia): 54.1 µM
- TGI (UO-31 renal): 33 µM
- TGI (IGROV1 ovarian): > 100 µM
- TGI (UACC-257 melanoma): 63.9 µM
- TGI (HOP-62 NSCLC): 59.8 µM
- TGI (BT-549 breast): 30.5 µM
- TGI (M14 melanoma): 38.7 µM
- TGI (HCT-116 colon): 91.9 µM
- TGI (U251 CNS): 48.6 µM
- TGI (HOP-92 NSCLC): > 100 µM
- TGI (NCI-H23 lung): 42.1 µM
- TGI (SW-620 colon): > 100 µM
- TGI (T-47D breast): 42.5 µM
- TGI (OVCAR-4 ovarian): > 100 µM
- TGI (SF-539 CNS): 35.4 µM
- TGI (OVCAR-5 ovarian): 50.4 µM
- TGI (SNB-19 CNS): 70.1 µM
- TGI (OVCAR-8 ovarian): > 100 µM
- TGI (NCI-H522 lung): 36.6 µM
- TGI (K-562 leukemia): 54.7 µM
- TGI (A549 NSCLC): 82.3 µM

SMILES: C=C1C(=O)C23CC1CCC2C12CO[C@H](O)[C@H]1C(C)(C)[C@H](OC(C)=O)C[C@H]2OC3=O (some centres not stated)
- TGI (CAKI-1 renal): 28.8 µM
- TGI (HCT-15 colon): 28.8 µM
- TGI (PC-3 prostate): > 100 µM
- TGI (MDA-MB-231 breast): 37.2 µM
- TGI (NCI-H460 lung): > 100 µM
- TGI (DU-145 prostate): 83.3 µM
- TGI (SN12C renal): 46.2 µM
- TGI (SK-MEL-5 melanoma): 77.1 µM
- TGI (UACC-62 melanoma): 28.9 µM
- TGI (ACHN renal): 29.6 µM
- TGI (SNB-75 CNS): > 100 µM
- TGI (NCI-H226 lung): > 100 µM
- TGI (HS 578T breast): > 100 µM
- TGI (SK-MEL-28 melanoma): 33.2 µM
- TGI (SK-OV-3 ovarian): > 100 µM
- TGI (KM12 colon): > 100 µM
- TGI (MCF7 breast): 32.4 µM
- TGI (MDA-MB-435): 44.8 µM
- TGI (MOLT-4 leukemia): 82.2 µM
- TGI (MALME-3M melanoma): 28.1 µM
- TGI (SF-295 CNS): > 100 µM
- TGI (HL-60(TB) leukemia): 87.9 µM
- TGI (SK-MEL-2 melanoma): 31.1 µM
- TGI (NCI/ADR-RES ovarian): > 100 µM
- TGI (MDA-N): 30.6 µM
- TGI (HT29 colon): 27.1 µM
- TGI (LOX IMVI melanoma): 33.7 µM
- TGI (TK-10 renal): 28.5 µM
- TGI (CCRF-CEM leukemia): > 100 µM
- TGI (OVCAR-3 ovarian): 55.2 µM
- TGI (COLO 205 colon): 28.8 µM
- TGI (SF-268 CNS): 34.2 µM
- TGI (786-0 renal): 29.9 µM
- TGI (EKVX NSCLC): 29.1 µM
- TGI (RPMI-8226 leukemia): > 100 µM
- TGI (UO-31 renal): 67.7 µM
- TGI (IGROV1 ovarian): > 100 µM
- TGI (UACC-257 melanoma): > 100 µM
- TGI (BT-549 breast): 21.9 µM
- TGI (M14 melanoma): 53.2 µM
- TGI (HCT-116 colon): 28 µM
- TGI (U251 CNS): > 100 µM
- TGI (HOP-92 NSCLC): 22.2 µM
- TGI (NCI-H23 lung): > 100 µM
- TGI (HCC-2998 colon): 54.2 µM
- TGI (SW-620 colon): 30.5 µM
- TGI (T-47D breast): 40.5 µM
- TGI (OVCAR-4 ovarian): > 100 µM
- TGI (SF-539 CNS): 41.7 µM
- TGI (OVCAR-5 ovarian): 33.3 µM
- TGI (SNB-19 CNS): > 100 µM
- TGI (OVCAR-8 ovarian): > 100 µM
- TGI (NCI-H522 lung): 3.63 µM
- TGI (K-562 leukemia): > 100 µM
- TGI (A549 NSCLC): > 100 µM

SMILES: O=[N+]([O-])/C(C(Cl)=C(Cl)Cl)=C(\Nc1cccc2ccccc12)n1nnc2ccccc21
- TGI (CAKI-1 renal): > 100 µM
- TGI (HCT-15 colon): > 100 µM
- TGI (PC-3 prostate): > 100 µM
- TGI (MDA-MB-231 breast): > 100 µM
- TGI (NCI-H460 lung): > 100 µM
- TGI (DU-145 prostate): > 100 µM
- TGI (SN12C renal): > 100 µM
- TGI (UACC-62 melanoma): > 100 µM
- TGI (ACHN renal): > 100 µM
- TGI (SNB-75 CNS): > 100 µM
- TGI (NCI-H226 lung): > 100 µM
- TGI (HS 578T breast): 39.1 µM
- TGI (SK-MEL-28 melanoma): > 100 µM
- TGI (SK-OV-3 ovarian): > 100 µM
- TGI (KM12 colon): > 100 µM
- TGI (MCF7 breast): > 100 µM
- TGI (A498 renal): > 100 µM
- TGI (MDA-MB-435): > 100 µM
- TGI (MALME-3M melanoma): > 100 µM
- TGI (SF-295 CNS): > 100 µM
- TGI (SK-MEL-2 melanoma): > 100 µM
- TGI (NCI/ADR-RES ovarian): > 100 µM
- TGI (MDA-N): > 100 µM
- TGI (HT29 colon): > 100 µM
- TGI (RXF 393 renal): 79.3 µM
- TGI (LOX IMVI melanoma): > 100 µM
- TGI (CCRF-CEM leukemia): > 100 µM
- TGI (OVCAR-3 ovarian): > 100 µM
- TGI (COLO 205 colon): 41 µM
- TGI (SF-268 CNS): > 100 µM
- TGI (786-0 renal): > 100 µM
- TGI (EKVX NSCLC): > 100 µM
- TGI (RPMI-8226 leukemia): > 100 µM
- TGI (UO-31 renal): > 100 µM
- TGI (UACC-257 melanoma): > 100 µM
- TGI (HOP-62 NSCLC): > 100 µM
- TGI (BT-549 breast): 98.8 µM
- TGI (M14 melanoma): > 100 µM
- TGI (HCT-116 colon): > 100 µM
- TGI (U251 CNS): > 100 µM
- TGI (NCI-H23 lung): > 100 µM
- TGI (HCC-2998 colon): > 100 µM
- TGI (SW-620 colon): > 100 µM
- TGI (T-47D breast): > 100 µM
- TGI (OVCAR-4 ovarian): > 100 µM
- TGI (SF-539 CNS): > 100 µM
- TGI (OVCAR-5 ovarian): > 100 µM
- TGI (SNB-19 CNS): > 100 µM
- TGI (OVCAR-8 ovarian): > 100 µM
- TGI (A549 NSCLC): > 100 µM
